Assay results published in patent US11219627B2, “Clearance of amyloid beta” (priority 2014, dated 2022).
Read-outs that look alike come from different tables or passages of the source.

How the values were obtained:
nicotinic receptors = conditions: cited from earlier work
CSF Aβ = conditions: in vivo; cited from earlier work
[1] = test system: mice transgenic for an anti-NGF (nerve growth factor) antibody; conditions: 3.5 mg/kg/day, cited from earlier work
[2] = test system: serum tumor necrosis factor (TNF); conditions: cited from earlier work
neuroblastoma cells = conditions: 300 nM; cited from earlier work
[3] = test system: Primary rat cultured cortical neurons; conditions: cited from earlier work
β-secretase = conditions: 300 nM; cited from earlier work
MCI patients = conditions: cited from earlier work
α7 nicotinic receptors = target: T1, α7 nicotinic receptors (Rattus norvegicus, UniProt Q05941); conditions: 1 μM; 1.5 mM choline; cited from earlier work
T1 construct: Primary cultured rat neurons can be depolarized by the application of 1.5 mM choline; endogenous in cells; host or cells: primary cultured rat neurons
T1 sequence (Q05941 23-502): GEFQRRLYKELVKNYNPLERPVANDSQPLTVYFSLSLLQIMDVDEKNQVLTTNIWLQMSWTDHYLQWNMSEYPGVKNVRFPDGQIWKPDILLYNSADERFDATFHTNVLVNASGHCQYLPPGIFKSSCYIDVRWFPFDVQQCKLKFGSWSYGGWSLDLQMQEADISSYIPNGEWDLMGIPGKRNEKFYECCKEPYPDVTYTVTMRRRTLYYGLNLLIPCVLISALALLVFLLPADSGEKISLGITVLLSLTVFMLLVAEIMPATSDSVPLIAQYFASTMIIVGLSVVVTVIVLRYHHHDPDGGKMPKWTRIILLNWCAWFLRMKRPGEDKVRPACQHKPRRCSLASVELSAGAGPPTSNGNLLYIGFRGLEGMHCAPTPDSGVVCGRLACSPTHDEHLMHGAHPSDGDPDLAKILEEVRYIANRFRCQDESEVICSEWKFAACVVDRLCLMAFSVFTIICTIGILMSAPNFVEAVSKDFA

[4] = test system: Mice with lesions of the nucleus basalis magnocellularis (nBm); conditions: cited from earlier work
[5] = test system: mice transgenic for a single, different Swedish APP mutation; conditions: ten days at 2 mg/kg/day; cited from earlier work
[6] = test system: adrenal chromaffin and human neuroblastoma cells; conditions: 100 to 300 nM; Aβ1-40 10 μM; cited from earlier work
[7] = test system: mild-to-moderate AD patients; assay: two-year randomized trial of galantamine and placebo; type: in vivo, human; conditions: 24 months
[8] = test system: mild-to-moderate AD patients; conditions: cited from earlier work
APdE9 mice = conditions: cited from earlier work; for insoluble Aβ in mouse brains: 2 months
Aβ1-40 = Aβ1-40 (Homo sapiens, UniProt P05067); conditions: 500 nM; 50 μM Aβ1-40; cited from earlier work
Chain of Aβ1-40 (P05067 672-711 limits assumed): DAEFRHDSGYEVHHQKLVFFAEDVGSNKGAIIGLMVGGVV

[9] = human patients; cited from earlier work
CSF Aβ42 = conditions: single-dose study, dose-dependent; cited from earlier work
[10] = test system: patients with Alzheimer's disease; assay: combined solanezumab phase III studies by standard of care subgroup; type: in vivo, human
Source text: The notion that the Alzheimer brain, and the brain which is developing, but has not yet reached the stage of classical Alzheimer's disease with dementia is impaired by both excess Aβ in the region of plaques, and subnormal Aβ concentrations in the ISF bathing healthy tissue away from plaques, has important treatment implications. The clinical outcome measures used to evaluate interventions designed to alter the course of AD depend on the function of intact, healthy synapses. Anti-amyloid agents would not be expected to target plaques and spare healthy tissue, but rather to further decrease ISF Aβ, which is already reduced to about half of normal in patients with AD or classical MCI. […] (J Alz Dis 2013; 33, S111-S120) 3D6, the […] of bapineuzemab, impaired neuronal viability, as have large doses of γ- and β-secretase inhibitors. […] The combined solanezumab phase III studies have been analyzed for solanezumab's performance in patients with and without cholinesterase inhibitor and memantine treatments (called standard of care—SOC). […] ChEls might improve the function of the normal cells, allowing the antibody to show a net benefit because of its binding of Aβ where it is toxic.

[11] = test system: patients with Alzheimer's disease; conditions: cited from earlier work
mild to moderate AD = conditions: cited from earlier work; for reduction in loss on the ADAS-cog: mild patients

Which “blockade of nicotinic receptors” value (nicotinic receptors) does the source give for CC12CC3CC(C)(C1)CC(N)(C3)C2 [Memantine] here?
The value was “potent blocker of nicotinic receptors”.

Which results are given for COc1ccc2c3c1O[C@H]1C[C@@H](O)C=C[C@@]31CCN(C)C2 [galantamine, (4aS,6R,8aS)-5,6,9,10,11,12-hexahydro-3-methoxy-11-methyl-4aH-[1]benzofuro[3a,3,2-ef][2]benzazepin-6-ol]?
effect on CSF Aβ (CSF Aβ): does not lower CSF Aβ; intracellular Aβ deposits ([1]; after 15 days): decreased intracellular Aβ deposits; ChAT activity [1]: restored ChAT activity; serum tumor necrosis factor (TNF) ([2]; 1 mg/kg, administered prior to endotoxin): significantly reduces serum tumor necrosis factor (TNF); dose at which survival is improved significantly ([2]; endotoxin): 4 mg/kg; release of Aβ1-40 and Aβ1-42 (neuroblastoma cells): decreased; protection of neurons against Aβ plus glutamate ([3]; 0.1 μM): intermediate effect which is not statistically significant; protection of neurons against Aβ plus glutamate ([3]; 1.0 μM): protects neurons against Aβ plus glutamate; activity of β-secretase (β-secretase): decreased; deaths (MCI patients; 24-month study period, all patients entered): 34; reduction of global atrophy (serial MRIs) versus placebo (MCI patients; subpopulation of two-year MCI study): 33%; deaths (MCI patients; within 30 days of stopping galantamine): 14; enhancement of the depolarization caused by choline (α7 nicotinic receptors): 20.6±4.2%; additional time remaining in the lighted compartment versus saline ([4]; given during training, optimal performance): about 125 seconds; best dose for memory enhancement ([4]; passive avoidance): 3 mg/kg; insoluble or soluble Aβ species [5]: did not reduce insoluble or soluble Aβ species; synaptophysin levels [5]: significantly raise synaptophysin levels; Aβ1-40-induced apoptosis [6]: reduced Aβ1-40-induced apoptosis; Disability Assessment in Dementia percent difference versus placebo [7]: 24%; MMSE percent difference versus placebo [7]: 34%; reduction of MMSE deterioration versus placebo ([7]; patients receiving memantine removed): 48%; MMSE change ([8]; 6 months): 0.15; MMSE difference versus placebo ([8]; 6 months): 0.43; Disability Assessment in Dementia change ([8]; 12 months): −4.55; Disability Assessment in Dementia difference versus placebo ([8]; 12 months): 1.95; MMSE deterioration ([8]; 24 months, patients receiving memantine removed): 1.12 points; Disability Assessment in Dementia change ([8]; 24 months): −8.16; Disability Assessment in Dementia difference versus placebo ([8]; 24 months): 2.65; MMSE change ([8]; 24 months): −1.41; MMSE difference versus placebo ([8]; 24 months): 0.73; mortality less than in placebo patients ([8]; in vivo): 42%; insoluble Aβ in mouse brains (APdE9 mice; 1 mg/kg/day): significantly reduced insoluble (fibrillar) Aβ1-40; insoluble Aβ in mouse brains (APdE9 mice; 5 mg/kg/day): reduced both Aβ1-40 and Aβ1-42; soluble Aβ species (APdE9 mice; 1 or 5 mg/kg/day): Neither dose significantly affected soluble Aβ species; aggregation of Aβ1-40 (Aβ1-40): reduce aggregation; plasma half-life [9]: about 7 hours

For “Solanezumab: antibody directed at the central portion of Aβ”, which “rise in CSF Aβ42” value (CSF Aβ42) is on record?
The value was “up to 35%”.

What about the “benefit on the ADAS-cog versus placebo” value ([10]; cholinesterase inhibitors, without memantine) of the same compound?
The value was 2.1 points.

What about the “excess cognitive deterioration on the ADAS-cog versus placebo” value ([10]; patients not receiving cholinesterase inhibitors) of the same compound?
Its value is 3.6 points.

What about the “excess cognitive deterioration on the ADAS-cog versus placebo” value ([10]; patients on memantine only) of the same compound?
Its value is 4.1 points.

What about the “LS Mean Change (SE) from Baseline to Week 80 in ADAS-Cog14 Scores” value (shortened to “LS Mean Change (SE) from Baseline”) ([11]; AChEI + Memantine) of the same compound?
Its value is 9.8 (0.8).

What about the “LS Mean Change (SE) from Baseline” value ([11]; AChEI only) of the same compound?
Its value is 6.8 (0.5).

What about the “LS Mean Change (SE) from Baseline” value ([11]; Memantine only) of the same compound?
Its value is 11.2 (1.9).

What about the “LS Mean Change (SE) from Baseline” value ([11]; No SOC) of the same compound?
The value was 6.5 (1.3).

What about the “reduction of functional decline (ADCS-ADL)” value (mild to moderate AD; Expedition II) of the same compound?
The value was 19%.

And the “reduction in loss on the ADAS-cog” value (mild to moderate AD; Expedition I)?
The value was 42%.

And the “reduction in loss on the ADAS-cog” value (mild to moderate AD; Expedition II)?
Its value is 20%.

And the “decrease of activities of daily living loss” value (mild to moderate AD; mild subgroups combined)?
The value was 17%.

And the “slowing of cognitive loss” value (mild to moderate AD; mild subgroups combined)?
The value was 34%.
